Here are results for two compounds from ChEMBL document CHEMBL1201862, “PubChem BioAssay data set” (2004).

Activity calls are given as the source filed them.

Assay type in all cases: functional
The target of test [1] is Death-associated protein kinase 3 (Homo sapiens, UniProt O43293).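 Note: measured as one member of a kinome-wide profiling panel.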
The target of test [2] is Macrophage colony-stimulating factor 1 receptor (Homo sapiens, UniProt P07333).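 Note: value comes from the Navigating the Kinome screening panel, CSF1R member.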
The target in test [3] is Platelet-derived growth factor receptor beta (Homo sapiens, UniProt P09619).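 Note: value comes from a kinome panel, with PDGFRB tested as one panel member.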
Test [4] has as its target Cyclin-dependent kinase 19 (Homo sapiens, UniProt Q9BWU1). In words: Navigating the Kinome. Panel member name: CDC2L6.
Test [5] has as its target Tyrosine-protein kinase ABL1 (Homo sapiens, UniProt P00519).
The target of test [6] is High affinity nerve growth factor receptor (Homo sapiens, UniProt P04629).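 Note: NTRK1 tested as one member of a kinome-wide profiling panel.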
The target in test [7] is Dual specificity tyrosine-phosphorylation-regulated kinase 1A (Homo sapiens, UniProt Q13627).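 Note: measured against DYRK1A as one member of a broad kinome profiling panel.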
Test [8] deals with Ribosomal protein S6 kinase alpha-3 (Homo sapiens, UniProt P51812).
For test [9], the target named is Glycogen synthase kinase-3 beta (Homo sapiens, UniProt P49841).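 Note: value comes from a broad kinome profiling panel, with GSK3B as the panel member.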
Test [10] addresses cAMP-dependent protein kinase catalytic subunit alpha (Homo sapiens, UniProt P17612).
The target in test [11] is BDNF/NT-3 growth factors receptor (Homo sapiens, UniProt Q16620).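 Note: NTRK2 measured as one member of a broad kinome-wide kinase profiling panel.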
For test [12], the target named is Calcium/calmodulin-dependent protein kinase type II subunit alpha (Homo sapiens, UniProt Q9UQM7). Kind of test: Navigating the Kinome. Panel member name: CAMK2A.
Test [13] concerns the target Dual specificity protein kinase CLK4 (Homo sapiens, UniProt Q9HAZ1).
For test [14], the target named is Tyrosine-protein kinase JAK2 (Homo sapiens, UniProt O60674).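 Note: JAK2 tested as one member of a kinase panel.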
The target of another test is LIM domain kinase 1 (Homo sapiens, UniProt P53667). In words: Navigating the Kinome. Panel member name: LIMK1.
The target in test [15] is Glycogen synthase kinase-3 alpha (Homo sapiens, UniProt P49840).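 Note: GSK3A result taken from a broad kinome-wide kinase panel.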
Test [16] concerns the target Protein kinase C theta type (Homo sapiens, UniProt Q04759). In words: Navigating the Kinome. Panel member name: PRKCQ.
Test [17] deals with Hepatocyte growth factor receptor (Homo sapiens, UniProt P08581).
Test [18] deals with Dual specificity tyrosine-phosphorylation-regulated kinase 1B (Homo sapiens, UniProt Q9Y463). Kind of test: Navigating the Kinome. Panel member name: DYRK1B.
The target in test [19] is 5'-AMP-activated protein kinase catalytic subunit alpha-1 (Homo sapiens, UniProt Q13131).
For test [20], the target named is Serine/threonine-protein kinase Chk1 (Homo sapiens, UniProt O14757).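 Note: measured as one member of a kinome-wide kinase profiling panel.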
In test [21] the target is Mitogen-activated protein kinase 8 (Homo sapiens, UniProt P45983).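 Note: value comes from one member of a kinome-wide kinase profiling panel.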
Test [22] concerns the target Proto-oncogene tyrosine-protein kinase receptor Ret (Homo sapiens, UniProt P07949).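 Note: measured within a kinome-wide profiling panel, RET as the panel member.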
The target of test [23] is Cyclin-dependent kinase 9 (Homo sapiens, UniProt P50750).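 Note: value from the CDK9 entry of a kinome-spanning kinase panel.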
Test [24] deals with Dual specificity mitogen-activated protein kinase kinase 2 (Homo sapiens, UniProt P36507). Kind of test: Navigating the Kinome. Panel member name: MAP2K2.
The target of test [25] is Vascular endothelial growth factor receptor 2 (Homo sapiens, UniProt P35968).
For test [26], the target named is Mitogen-activated protein kinase kinase kinase kinase 2 (Homo sapiens, UniProt Q12851).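 Note: measured as one member of a kinome-wide kinase panel, with MAP4K2 as the panel entry.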
Test [27] has as its target Serine/threonine-protein kinase pim-1 (Homo sapiens, UniProt P11309).
The target of test [28] is Tyrosine-protein kinase receptor TYRO3 (Homo sapiens, UniProt Q06418).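 Note: TYRO3 value obtained as one member of a kinome-wide profiling panel.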
The next test addresses T1, Aurora kinase A (Homo sapiens, UniProt O14965).
T1 sequence (O14965 whole entry): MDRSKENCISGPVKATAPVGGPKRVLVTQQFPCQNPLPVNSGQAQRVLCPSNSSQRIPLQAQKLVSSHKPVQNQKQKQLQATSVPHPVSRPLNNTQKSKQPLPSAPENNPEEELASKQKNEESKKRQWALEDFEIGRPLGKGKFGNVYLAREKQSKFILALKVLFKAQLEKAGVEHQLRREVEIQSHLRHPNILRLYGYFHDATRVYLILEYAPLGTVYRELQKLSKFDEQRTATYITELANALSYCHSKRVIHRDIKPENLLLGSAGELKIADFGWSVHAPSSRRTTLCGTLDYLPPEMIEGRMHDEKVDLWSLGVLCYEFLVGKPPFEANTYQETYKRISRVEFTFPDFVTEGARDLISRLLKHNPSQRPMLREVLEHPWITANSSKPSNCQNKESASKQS

The target in test [29] is Receptor-type tyrosine-protein kinase FLT3 (Homo sapiens, UniProt P36888).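 Note: FLT3 was tested as one member of a kinome-wide kinase panel.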
The target in test [30] is T2, High affinity choline transporter 1 (Homo sapiens, UniProt Q9GZV3).
T2 sequence (Q9GZV3 whole entry): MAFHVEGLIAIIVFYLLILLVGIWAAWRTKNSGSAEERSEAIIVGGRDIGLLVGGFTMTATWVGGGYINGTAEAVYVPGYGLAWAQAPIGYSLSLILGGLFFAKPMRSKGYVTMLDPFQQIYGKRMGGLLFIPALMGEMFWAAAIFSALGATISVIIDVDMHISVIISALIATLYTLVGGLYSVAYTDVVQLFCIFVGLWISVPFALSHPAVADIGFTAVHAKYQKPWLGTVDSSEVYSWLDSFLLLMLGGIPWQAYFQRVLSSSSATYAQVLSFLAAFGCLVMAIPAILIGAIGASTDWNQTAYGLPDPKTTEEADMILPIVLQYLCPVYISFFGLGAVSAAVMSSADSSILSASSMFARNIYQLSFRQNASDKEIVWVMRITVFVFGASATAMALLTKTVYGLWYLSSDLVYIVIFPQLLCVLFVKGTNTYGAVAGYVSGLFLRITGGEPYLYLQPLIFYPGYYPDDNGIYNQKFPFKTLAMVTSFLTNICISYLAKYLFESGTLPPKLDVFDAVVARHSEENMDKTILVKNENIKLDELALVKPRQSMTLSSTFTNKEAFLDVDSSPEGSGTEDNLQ
In words: CHT inhibitors, dose response, cell-based, 5-point CRC, membrane potential dye (AID 504840).

The target in test [31] is T2, High affinity choline transporter 1. Kind of test: CHT inhibitors, dose response, cell-based, 10-point CRC, membrane potential dye (AID 588401).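 Note: membrane potential dye fluorescence of choline-evoked depolarization via CHT.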

Chain of Mitogen-activated protein kinase kinase kinase kinase 2 (Q12851 whole entry): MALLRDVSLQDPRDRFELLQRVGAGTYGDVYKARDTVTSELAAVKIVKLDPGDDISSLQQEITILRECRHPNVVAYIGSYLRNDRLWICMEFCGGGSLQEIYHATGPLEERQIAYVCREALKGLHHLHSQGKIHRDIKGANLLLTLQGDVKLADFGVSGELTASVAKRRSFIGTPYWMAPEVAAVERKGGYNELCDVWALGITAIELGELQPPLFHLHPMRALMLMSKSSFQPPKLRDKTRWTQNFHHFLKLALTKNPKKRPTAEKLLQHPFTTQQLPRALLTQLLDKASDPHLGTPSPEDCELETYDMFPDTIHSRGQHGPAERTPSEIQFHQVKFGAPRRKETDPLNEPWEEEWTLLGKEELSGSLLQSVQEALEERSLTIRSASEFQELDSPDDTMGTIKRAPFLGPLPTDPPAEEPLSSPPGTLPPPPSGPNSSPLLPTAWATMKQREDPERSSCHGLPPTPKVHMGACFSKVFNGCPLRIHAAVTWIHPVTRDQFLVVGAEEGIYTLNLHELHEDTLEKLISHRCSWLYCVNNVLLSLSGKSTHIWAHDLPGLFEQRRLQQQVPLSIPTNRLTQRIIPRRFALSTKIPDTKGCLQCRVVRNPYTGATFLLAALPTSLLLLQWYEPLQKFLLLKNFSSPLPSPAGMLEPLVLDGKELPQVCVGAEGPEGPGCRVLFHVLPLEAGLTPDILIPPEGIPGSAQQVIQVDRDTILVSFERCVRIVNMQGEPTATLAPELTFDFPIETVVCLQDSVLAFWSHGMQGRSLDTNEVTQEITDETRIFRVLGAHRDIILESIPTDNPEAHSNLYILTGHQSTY
Chain of Cyclin-dependent kinase 9 (P50750 whole entry): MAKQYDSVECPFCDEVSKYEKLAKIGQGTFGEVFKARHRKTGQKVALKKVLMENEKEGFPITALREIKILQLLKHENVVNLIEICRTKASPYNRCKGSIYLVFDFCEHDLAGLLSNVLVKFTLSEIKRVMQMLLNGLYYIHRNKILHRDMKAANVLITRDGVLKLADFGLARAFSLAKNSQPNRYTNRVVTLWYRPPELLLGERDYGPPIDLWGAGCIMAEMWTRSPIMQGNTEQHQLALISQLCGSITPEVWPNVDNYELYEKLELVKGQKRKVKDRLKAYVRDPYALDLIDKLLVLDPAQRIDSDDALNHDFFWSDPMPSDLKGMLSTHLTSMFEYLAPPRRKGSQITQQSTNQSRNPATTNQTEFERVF
Chain of Glycogen synthase kinase-3 alpha (P49840 whole entry): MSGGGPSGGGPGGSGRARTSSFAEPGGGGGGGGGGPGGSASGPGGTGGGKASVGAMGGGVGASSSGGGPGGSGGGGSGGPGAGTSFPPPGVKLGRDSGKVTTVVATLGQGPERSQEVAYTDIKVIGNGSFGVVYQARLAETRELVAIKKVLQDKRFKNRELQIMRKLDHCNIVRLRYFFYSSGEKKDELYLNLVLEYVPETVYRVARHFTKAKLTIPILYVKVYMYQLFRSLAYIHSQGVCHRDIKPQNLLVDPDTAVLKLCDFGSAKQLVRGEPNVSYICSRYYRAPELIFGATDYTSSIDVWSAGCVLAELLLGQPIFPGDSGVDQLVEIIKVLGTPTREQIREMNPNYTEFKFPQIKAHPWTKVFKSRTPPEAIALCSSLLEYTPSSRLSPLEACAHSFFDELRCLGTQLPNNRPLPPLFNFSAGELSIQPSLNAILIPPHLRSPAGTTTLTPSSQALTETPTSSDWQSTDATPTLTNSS
Chain of Calcium/calmodulin-dependent protein kinase type II subunit alpha (Q9UQM7 whole entry): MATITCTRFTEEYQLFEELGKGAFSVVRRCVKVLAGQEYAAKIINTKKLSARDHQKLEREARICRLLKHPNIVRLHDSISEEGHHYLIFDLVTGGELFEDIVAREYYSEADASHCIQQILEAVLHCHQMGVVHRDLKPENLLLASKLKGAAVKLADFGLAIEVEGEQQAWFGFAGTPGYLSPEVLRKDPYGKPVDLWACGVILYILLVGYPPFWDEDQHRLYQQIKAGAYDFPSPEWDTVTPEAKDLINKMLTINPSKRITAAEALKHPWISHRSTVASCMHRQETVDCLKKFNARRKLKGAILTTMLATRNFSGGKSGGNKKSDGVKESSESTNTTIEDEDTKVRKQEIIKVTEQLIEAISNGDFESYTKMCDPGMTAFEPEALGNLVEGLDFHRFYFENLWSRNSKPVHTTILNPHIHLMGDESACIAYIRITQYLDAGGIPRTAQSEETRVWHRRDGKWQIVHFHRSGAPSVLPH
Chain of Mitogen-activated protein kinase 8 (P45983 whole entry): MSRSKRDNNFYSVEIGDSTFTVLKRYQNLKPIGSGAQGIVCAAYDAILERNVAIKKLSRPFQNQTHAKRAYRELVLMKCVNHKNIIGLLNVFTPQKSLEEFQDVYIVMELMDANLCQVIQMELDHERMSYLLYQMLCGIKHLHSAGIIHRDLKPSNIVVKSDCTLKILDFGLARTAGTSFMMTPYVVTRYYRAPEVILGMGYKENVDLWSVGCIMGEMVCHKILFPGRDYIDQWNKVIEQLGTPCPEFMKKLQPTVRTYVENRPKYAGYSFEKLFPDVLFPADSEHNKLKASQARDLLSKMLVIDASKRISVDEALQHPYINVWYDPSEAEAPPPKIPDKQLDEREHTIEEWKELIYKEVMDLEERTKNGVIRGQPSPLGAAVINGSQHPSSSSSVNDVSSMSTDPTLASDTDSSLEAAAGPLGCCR
Chain of Cyclin-dependent kinase 19 (Q9BWU1 whole entry): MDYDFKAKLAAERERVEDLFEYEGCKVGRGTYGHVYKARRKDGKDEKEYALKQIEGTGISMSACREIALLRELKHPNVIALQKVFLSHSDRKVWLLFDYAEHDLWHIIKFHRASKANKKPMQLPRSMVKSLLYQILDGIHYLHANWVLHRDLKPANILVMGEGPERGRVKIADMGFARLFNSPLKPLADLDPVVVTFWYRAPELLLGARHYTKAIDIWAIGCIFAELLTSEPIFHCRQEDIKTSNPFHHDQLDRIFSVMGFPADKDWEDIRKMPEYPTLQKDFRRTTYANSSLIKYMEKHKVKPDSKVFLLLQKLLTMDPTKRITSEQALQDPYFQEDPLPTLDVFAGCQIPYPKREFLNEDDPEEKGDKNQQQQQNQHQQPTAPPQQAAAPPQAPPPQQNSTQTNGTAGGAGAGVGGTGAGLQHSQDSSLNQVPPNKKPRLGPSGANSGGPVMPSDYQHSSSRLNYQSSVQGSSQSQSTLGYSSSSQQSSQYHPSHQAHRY
Chain of Tyrosine-protein kinase JAK2 (O60674 whole entry, the tested form may be a part): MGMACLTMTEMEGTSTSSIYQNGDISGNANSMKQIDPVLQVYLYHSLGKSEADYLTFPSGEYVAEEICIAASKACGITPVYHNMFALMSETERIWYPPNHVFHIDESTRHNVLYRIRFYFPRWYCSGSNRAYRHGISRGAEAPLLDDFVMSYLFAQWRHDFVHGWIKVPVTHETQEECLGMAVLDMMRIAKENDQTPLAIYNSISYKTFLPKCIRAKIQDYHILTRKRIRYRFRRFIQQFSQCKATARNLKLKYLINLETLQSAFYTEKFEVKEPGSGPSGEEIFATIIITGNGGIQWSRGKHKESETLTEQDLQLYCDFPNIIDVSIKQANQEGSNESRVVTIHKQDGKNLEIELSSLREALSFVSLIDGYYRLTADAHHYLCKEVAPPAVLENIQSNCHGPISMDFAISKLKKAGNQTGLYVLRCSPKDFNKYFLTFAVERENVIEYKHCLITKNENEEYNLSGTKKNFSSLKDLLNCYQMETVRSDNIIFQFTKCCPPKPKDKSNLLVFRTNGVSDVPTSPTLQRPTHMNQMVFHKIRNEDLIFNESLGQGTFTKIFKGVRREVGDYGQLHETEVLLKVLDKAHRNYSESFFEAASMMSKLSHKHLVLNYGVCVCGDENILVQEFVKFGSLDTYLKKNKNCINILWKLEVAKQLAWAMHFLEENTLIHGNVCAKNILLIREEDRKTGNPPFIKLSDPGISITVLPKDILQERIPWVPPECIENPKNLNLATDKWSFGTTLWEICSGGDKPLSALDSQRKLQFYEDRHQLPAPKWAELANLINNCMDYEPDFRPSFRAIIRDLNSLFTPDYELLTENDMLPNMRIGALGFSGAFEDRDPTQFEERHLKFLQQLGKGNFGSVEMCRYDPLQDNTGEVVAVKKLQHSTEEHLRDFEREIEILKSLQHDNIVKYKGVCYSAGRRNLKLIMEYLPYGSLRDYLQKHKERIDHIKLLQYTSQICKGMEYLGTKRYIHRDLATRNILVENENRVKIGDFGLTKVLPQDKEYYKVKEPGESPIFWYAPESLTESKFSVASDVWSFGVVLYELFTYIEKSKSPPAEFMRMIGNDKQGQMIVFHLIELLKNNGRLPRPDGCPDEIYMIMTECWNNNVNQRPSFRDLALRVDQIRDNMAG
Chain of Dual specificity mitogen-activated protein kinase kinase 2 (P36507 whole entry): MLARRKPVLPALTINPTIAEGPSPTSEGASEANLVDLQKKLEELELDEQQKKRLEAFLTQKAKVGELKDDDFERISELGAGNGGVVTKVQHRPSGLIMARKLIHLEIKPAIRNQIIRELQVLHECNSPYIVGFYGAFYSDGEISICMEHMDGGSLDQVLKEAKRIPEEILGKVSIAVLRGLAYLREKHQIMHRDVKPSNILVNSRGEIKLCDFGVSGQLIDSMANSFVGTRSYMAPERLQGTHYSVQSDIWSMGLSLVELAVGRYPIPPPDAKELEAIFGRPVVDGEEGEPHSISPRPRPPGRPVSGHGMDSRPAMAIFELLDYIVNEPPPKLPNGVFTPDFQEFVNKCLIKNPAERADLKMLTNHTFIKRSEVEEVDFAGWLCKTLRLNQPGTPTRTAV
Chain of Serine/threonine-protein kinase pim-1 (P11309 whole entry): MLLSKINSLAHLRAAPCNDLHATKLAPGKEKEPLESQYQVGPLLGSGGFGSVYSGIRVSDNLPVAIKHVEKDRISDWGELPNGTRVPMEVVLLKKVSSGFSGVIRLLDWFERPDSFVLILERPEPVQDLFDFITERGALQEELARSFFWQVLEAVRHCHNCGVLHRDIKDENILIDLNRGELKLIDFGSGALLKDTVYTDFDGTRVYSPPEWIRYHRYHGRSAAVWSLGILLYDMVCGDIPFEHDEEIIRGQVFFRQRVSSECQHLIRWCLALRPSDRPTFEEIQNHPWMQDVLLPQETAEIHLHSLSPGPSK

Regarding `COc1ccc(-c2ccc(N)cc2)c2cnoc12`, the Ki in test [1] was 79.4 µM (active); in [2], > 100 µM (inactive); in [3], > 79.4 µM (inactive); in test [4], > 100 µM (inactive); in test [5], 63.1 µM (active); in test [6], 15.8 µM (active). The Ki is > 63.1 µM (inactive) in test [7]; 63.1 µM (active) in test [8]; 31.6 µM (active) in [9]; > 50.1 µM (inactive) in test [10]; 100 µM (active) in [11]; 79.4 µM (active) in test [12]. For the same compound, the Ki in [13] was 7.94 µM (active); in test [14], 79.4 µM (active); at LIM domain kinase 1, 3.98 µM (active); in test [15], 100 µM (active); in test [16], > 79.4 µM (inactive); in test [17] it was 79.4 µM (active). The Ki in test [18] was 50.1 µM (active); in test [19] it was 79.4 µM (active); in test [20], 3.98 µM (active); in test [21], 50.1 µM (active); in test [22] it was 39.8 µM (active); in test [23] it was > 63.1 µM (inactive). Moreover, the Ki is 100 µM (active) in test [24]; > 79.4 µM (inactive) in test [25]; 63.1 µM (active) in [26]; 12.6 µM (active) in test [27]; 100 µM (active) in [28]; > 50.1 µM (inactive) at Aurora kinase A. The Ki in test [29] is 79.4 µM (active).

With `CC(/C=C1\SC(=S)N(CC(=O)O)C1=O)=C\c1ccccc1`, the results for the IC50 in [30] and in test [31] were 9.45 µM (active) and 6.48 µM (active), respectively.
